Reference: patent US20230391760A1, “HETEROCYCLIC GLP-1 AGONISTS” (Gasherbrum Bio, Inc., priority 2020, published 2023)

Biological target: GLP-1 Receptor (Homo sapiens, UniProt P43220)
Assay: GLP-1R agonist cAMP stimulation assay (HEK293/GLP1R/CRE-LUC cells, cAMP dynamic 2 Kit)
Format: cell-based
Settings: HEK293/CRE-Luc cell line stably expressing the GLP-1 Receptor, 30 min at 37° C.
Outline: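 HEK293 cells stably expressing human GLP-1R with CRE-luciferase, 1000 cells/well in DPBS with 0.5 mM IBMX and 0.1% BSA, treated with compound in 1/2-log serial dilution for 30 min at 37 °C. cAMP then detected by HTRF (cAMP-d2 plus anti-cAMP cryptate), 1 h at room temperature in the dark.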

Sequence of GLP-1 Receptor (P43220 24-463, species assumed): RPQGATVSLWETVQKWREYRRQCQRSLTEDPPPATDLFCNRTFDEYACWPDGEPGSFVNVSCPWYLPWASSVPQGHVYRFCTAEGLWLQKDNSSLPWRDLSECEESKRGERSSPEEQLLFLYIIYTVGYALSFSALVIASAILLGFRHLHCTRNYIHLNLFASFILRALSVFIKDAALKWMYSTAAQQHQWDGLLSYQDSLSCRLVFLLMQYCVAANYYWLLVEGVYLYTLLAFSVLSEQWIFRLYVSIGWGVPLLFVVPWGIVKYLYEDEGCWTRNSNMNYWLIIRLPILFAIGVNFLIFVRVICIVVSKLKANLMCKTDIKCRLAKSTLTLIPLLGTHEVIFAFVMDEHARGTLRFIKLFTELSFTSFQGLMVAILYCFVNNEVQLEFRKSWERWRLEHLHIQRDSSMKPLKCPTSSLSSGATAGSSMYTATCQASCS

Row | EC50 [nM] | Compound
1 | 2.5 | CC(C(=O)Nc1ccc2c(c1)nc(CN1CCC(c3cccc(OCc4ccc(Cl)cc4F)n3)CC1)n2C[C@@H]1CCO1)c1cnn(C)c1 (stereo partly drawn) [Compound 182a, N-{2-[(4-{6-[(4-chloro-2-fluorophenyl)methoxy]pyridin-2-yl}piperidin-1-yl)methyl]-1-{[(2S)-oxetan-2-yl]methyl}-1H-1,3-benzodiazol-5-yl}-2-(1-methyl-1H-pyrazol-4-yl)propanamide]
2 | 0.082 | Cc1nnc(-c2ccc3c(c2)nc(CN2CCC(c4cccc5c4O[C@@](C)(c4ccc(C(N)=O)cc4F)O5)CC2)n3C[C@@H]2CCO2)[nH]1 [Compound 410b, 3-fluoro-4-[(2S)-2-methyl-4-(1-{[5-(5-methyl-4H-1,2,4-triazol-3-yl)-1-{[(2S)-oxetan-2-yl]methyl}-1H-1,3-benzodiazol-2-yl]methyl}piperidin-4-yl)-2H-1,3-benzodioxol-2-yl]benzamide]
3 | 0.0092 | C[C@]1(c2ccc(Cl)cc2F)Oc2cccc(C3CCN(Cc4nc5cc(-c6nnc(C(F)F)[nH]6)ncc5n4C[C@@H]4CCO4)CC3)c2O1 [Compound 360a, 4-[(2S)-2-(4-chloro-2-fluorophenyl)-2-methyl-2H-1,3-benzodioxol-4-yl]-1-({6-[5-(difluoromethyl)-4H-1,2,4-triazol-3-yl]-3-{[(2S)-oxetan-2-yl]methyl}-3H-imidazo[4,5-c]pyridin-2-yl}methyl)piperidine]
4 | 0.076 | CC1(c2ccc(Cl)nc2)Oc2cccc(C3CCN(Cc4nc5cc(-c6nnc(C(F)(F)F)[nH]6)ncc5n4C[C@@H]4CCO4)CC3)c2O1 (stereo partly drawn) [Compound 467a, 2-chloro-5-(2-methyl-4-{1-[(3-{[(2S)-oxetan-2-yl]methyl}-6-[5-(trifluoromethyl)-4H-1,2,4-triazol-3-yl]-3H-imidazo[4,5-c]pyridin-2-yl)methyl]piperidin-4-yl}-2H-1,3-benzodioxol-2-yl)pyridine]
5 | 0.078 | Fc1cc(Cl)ccc1COc1cccc(C2CCN(Cc3nc4cc(-c5nnc(C(F)(F)F)[nH]5)cnc4n3C[C@@H]3CCO3)CC2F)n1 (stereo partly drawn) [Compound 500a, 2-[(4-chloro-2-fluorophenyl)methoxy]-6-[(3,4-trans)-3-fluoro-1-[(3-{[(2S)-oxetan-2-yl]methyl}-6-[5-(trifluoromethyl)-4H-1,2,4-triazol-3-yl]-3H-imidazo[4,5-b]pyridin-2-yl)methyl]piperidin-4-yl]pyridine]
6 | 3 | O=C(Nc1ccc2c(c1)nc(CN1CCC(c3cccc(OCc4ccc(Cl)cc4F)n3)CC1)n2C[C@@H]1CCO1)C1CCC(F)(F)C1 (stereo partly drawn) [Compound 186a, N-{2-[(4-{6-[(4-chloro-2-fluorophenyl)methoxy]pyridin-2-yl}piperidin-1-yl)methyl]-1-{[(2S)-oxetan-2-yl]methyl}-1H-1,3-benzodiazol-5-yl}-3,3-difluorocyclopentane-1-carboxamide]
7 | 0.026 | CC1(c2ccc(C#N)cc2F)Oc2cccc(C3CCN(Cc4nc5cc(-c6noc(=O)[nH]6)ncc5n4C[C@@H]4CCO4)CC3)c2O1 (stereo partly drawn) [Compound 341a, 3-fluoro-4-(2-methyl-4-{1-[(3-{[(2S)-oxetan-2-yl]methyl}-6-(5-oxo-4,5-dihydro-1,2,4-oxadiazol-3-yl)-3H-imidazo[4,5-c]pyridin-2-yl)methyl]piperidin-4-yl}-2H-1,3-benzodioxol-2-yl)benzonitrile]
8 | 2.7 | CO[C@@H](C)Cn1c(CN2CCC(c3cccc4c3OC(C)(c3ccc(Cl)cn3)O4)CC2)nc2cc(-c3noc(=O)[nH]3)ncc21 (stereo partly drawn) [Compound 437a, 3-[2-({4-[2-(5-chloropyridin-2-yl)-2-methyl-2H-1,3-benzodioxol-4-yl]piperidin-1-yl}methyl)-3-[(2S)-2-methoxypropyl]-3H-imidazo[4,5-c]pyridin-6-yl]-4,5-dihydro-1,2,4-oxadiazol-5-one]
9 | 0.045 | CC1(c2ccc(F)cc2Cl)Oc2cccc(C3CCN(Cc4nc5cc(-c6nnc(C(F)(F)F)[nH]6)ccc5n4C[C@@H]4CCO4)CC3)c2O1 (stereo partly drawn) [Compound 404a, 2-({4-[2-(2-chloro-4-fluorophenyl)-2-methyl-2H-1,3-benzodioxol-4-yl]piperidin-1-yl}methyl)-1-{[(2S)-oxetan-2-yl]methyl}-5-[5-(trifluoromethyl)-4H-1,2,4-triazol-3-yl]-1H-1,3-benzodiazole]
10 | 2 | Cc1nnc(-c2cnc3c(c2)nc(CN2CCC(c4cccc5c4OC(C)(c4ccc(Cl)cn4)O5)CC2)n3C[C@@H]2CCO2)[nH]1 (stereo partly drawn) [Compound 269a, 5-chloro-2-[2-methyl-4-(1-{[6-(5-methyl-4H-1,2,4-triazol-3-yl)-3-{[(2S)-oxetan-2-yl]methyl}-3H-imidazo[4,5-b]pyridin-2-yl]methyl}piperidin-4-yl)-2H-1,3-benzodioxol-2-yl]pyridine]
11 | 0.11 | CC1(c2ccc(Cl)cc2F)Oc2cccc(C3CCN(Cc4nc5cc(-c6cn(CCS(C)(=O)=O)nn6)ccc5n4C[C@@H]4CCO4)CC3)c2O1 (stereo partly drawn) [Compound 250a, 2-({4-[2-(4-chloro-2-fluorophenyl)-2-methyl-2H-1,3-benzodioxol-4-yl]piperidin-1-yl}methyl)-5-[1-(2-methanesulfonylethyl)-1H-1,2,3-triazol-4-yl]-1-{[(2S)-oxetan-2-yl]methyl}-1H-1,3-benzodiazole]
12 | 0.018 | Cc1nnc(-c2ccc3c(c2)nc(CN2CCC(c4cccc5c4O[C@@](C)(c4ccc(Cl)cc4F)O5)CC2)n3C[C@@H]2CCO2)[nH]1 [Compound 406a, 2-({4-[(2S)-2-(4-chloro-2-fluorophenyl)-2-methyl-2H-1,3-benzodioxol-4-yl]piperidin-1-yl}methyl)-5-(5-methyl-4H-1,2,4-triazol-3-yl)-1-{[(2S)-oxetan-2-yl]methyl}-1H-1,3-benzodiazole]
13 | 1.1 | O=C(Nc1ccc2c(c1)nc(CN1CCC(c3cccc(OCc4ccc(Cl)cc4F)n3)CC1)n2C[C@@H]1CCO1)C(F)(F)F [Compound 167a, N-{2-[(4-{6-[(4-chloro-2-fluorophenyl)methoxy]pyridin-2-yl}piperidin-1-yl)methyl]-1-{[(2S)-oxetan-2-yl]methyl}-1H-1,3-benzodiazol-5-yl}-2,2,2-trifluoroacetamide]
14 | 0.16 | CC1(c2ccc(F)cc2)Oc2cccc(C3CCN(Cc4nc5cc(-c6nnc(C(F)(F)F)[nH]6)ccc5n4C[C@@H]4CCO4)CC3)c2O1 (stereo partly drawn) [Compound 258a, 2-({4-[2-(4-fluorophenyl)-2-methyl-2H-1,3-benzodioxol-4-yl]piperidin-1-yl}methyl)-1-{[(2S)-oxetan-2-yl]methyl}-5-[5-(trifluoromethyl)-4H-1,2,4-triazol-3-yl]-1H-1,3-benzodiazole]
15 | 0.36 | Fc1cc(Cl)ccc1COc1cccc(C2=CCN(Cc3nc4cc(-c5nnc(C(F)(F)F)[nH]5)cnc4n3C[C@@H]3CCO3)CC2)c1 [Compound 319a, 4-{3-[(4-chloro-2-fluorophenyl)methoxy]phenyl}-1-[(3-{[(2S)-oxetan-2-yl]methyl}-6-[5-(trifluoromethyl)-4H-1,2,4-triazol-3-yl]-3H-imidazo[4,5-b]pyridin-2-yl)methyl]-1,2,3,6-tetrahydropyridine]
16 | 0.175 | CC(C)C(=O)Nc1ccc2c(c1)nc(CN1CCC(c3cccc(OCc4ccc(Cl)cc4F)n3)CC1)n2C[C@@H]1CCO1 [Compound 105a, (S)—N-(2-((4-(6-((4-chloro-2-fluorobenzyl)oxy)pyridin-2-yl)piperidin-1-yl)methyl)-1-(oxetan-2-ylmethyl)-1H-benzo[d]imidazol-5-yl)isobutyramide]
